# According to US20140371137A1, “PREPARATION OF PNA-6-AMINOGLUCOSAMINE CONJUGATES AS ANTIVIRAL AGENTS” (priority 2013, published 2014):
# Assays:
# [1] = test system: HCV subgenomic replicons in MH14 cells; test: Inhibition of viral translation and replication in MH14 cells carrying HCV subgenomic replicons; format: cell-based
# [2] = test system: HCV 5'NTR RNA; test: Gel electrophoretic mobility shift analysis (EMSA) of PNA-glucosamine conjugate binding to HCV 5'NTR RNA transcript; conditions: for gel retardation of the labeled RNA: 20 nM HCV 5'NTR RNA transcript
# Protocol: FIG. 10. Stoichiometry of binding of PNA-glucosamine conjugate to its target sequence: (A) The PCR product corresponding to domains III and IV of 5′NTR and the 36 nucleotide of the N-terminal coding sequence of the HCV core were transcribed to generate 244-base runoff transcripts using a T7 transcription kit from Roche Applied Sciences. The 20 nM of internally 32P labeled HCV 5′NTR RNA transcript was incubated either with various concentrations of PNA-glucosamine conjugate complementary to sequence 352-338 in domain IV of the 5′NTR or (B) scramble PNA-glucosamine conjugate. Binding of the PNA-glucosamine conjugate (PNAHCV 352-338) to its target sequence was evaluated by gel electrophoretic mobility shift analysis (EMSA). Lane 1, control without PNA conjugate; lane 2, 10 nM of PNA conjugate; lane 3, 15 nM of PNA conjugate; lane 4, 20 nM of conjugate, lane 5, 25 nM of conjugate.
# Target specificity of antisense PNA: Using a PNA-glucosamine conjugate targeted to the translation initiation window (352-338: […]) in Domain IV of HCV 5′NTR, we have shown that it has great specificity for the targeted sequence. The PNA-glucosamine conjugate ([…]) forms a tight complex with HCV RNA at a stoichiometric ratio (FIG. 10).
substance,measurement,setting,value
PNAHCV353-338: PNA-glucosamine conjugate targeted to the translation initiation window (352-338: TTCGTGCTCATGGTG) in Domain IV of HCV 5'NTR (all peptide nucleic acid (PNA); glucosamine conjugate attached),"HCV translation (viral protein NS5B, Western blot)","[1]; 72 h, 50, 100 and 200 nM conjugate (FIG. 13A)",efficiently blocked at a subnanomolar concentration
same,"HCV replication (viral RNA, RT PCR)","[1]; 72 h, 50, 100 and 200 nM conjugate (FIG. 13B)",efficiently blocked at a subnanomolar concentration
same,gel retardation of the labeled RNA,[2]; 1:0.5 ratio of target RNA to PNA conjugate,50%
same,gel retardation of the labeled RNA,[2]; 1:0.75 ratio of target RNA to PNA conjugate,75%
same,gel shift of the target RNA,[2]; stoichiometric ratios of 1:1 or greater,complete gel shift
